The values that follow come from ChEMBL document CHEMBL5365510, “Discovery of Novel, Thienopyridine-Based Tyrosine Kinase Inhibitors Targeting Tumorigenic RON Splice Variants” (ACS Med Chem Lett, 2023).

A word on the IC50: it is the midpoint of a concentration-inhibition curve. The term GI50 denotes the concentration at which growth is held to half of that of the control.

In experiment [1] the target is Macrophage-stimulating protein receptor (Homo sapiens, UniProt Q04912). The experiment is described as follows: Inhibition of N-terminal GST-tagged human recombinant RON (979 to 1400(end) residues) expressed in Sf21 cells incubated for 20 mins followed by ATP addition measured after 60 mins by TR-FRET based LanthaScreen kinase assay.
The test system of a further experiment is HT-29. The experiment is described as follows: Antiproliferative activity against human HT-29 cells harbouring wild-type KRAS and RON delta 160 assessed as cell growth inhibition measured after 72 hrs by MTS assay. The class given is functional.
The next experiment deals with KM12C. The experiment is described as follows: Antiproliferative activity against human KM12-C cells harbouring wild-type KRAS and RON delta 160 assessed as cell growth inhibition measured after 72 hrs by MTS assay. The experiment is classed as functional.
A further experiment has as its system SW-620. Kind of experiment: Antiproliferative activity against human SW620 cells harbouring KRAS G12 V mutant and RON delta 155 assessed as cell growth inhibition measured after 72 hrs by MTS assay. The experiment is classed as functional. Background: Tetrazolium assays rely on reduction of a dye to a coloured formazan, in cell work by metabolically active cells.

Regarding `CN1CCC(COc2ccn(-c3ccc(F)cc3)c(=O)c2C(=O)Nc2ccc(Oc3ccnc4cc(-c5ccc(CN6CCOCC6)cn5)sc34)c(F)c2)C1` (configuration not stated), the concentration for half-maximal inhibition (IC50) in experiment [1] is 75.6 nM.
On to `CN1CCC(Oc2ccn(-c3ccc(F)cc3)c(=O)c2C(=O)Nc2ccc(Oc3ccnc4cc(-c5ccc(CN6CCOCC6)cn5)sc34)c(F)c2)C1` (configuration not stated), for which the figures for the GI50 with HT-29, in the experiment with KM12C and in the experiment on SW-620 were 5610 nM, 55 nM and 3660 nM, respectively. Further, in experiment [1], the IC50 stood at 5.47 nM.
Take `CCOc1ccn(-c2ccc(F)cc2)c(=O)c1C(=O)Nc1ccc(Oc2ccnc3cc(-c4ccc(CNCCOC)cn4)sc23)c(F)c1`: the GI50 in the experiment with HT-29 turned out to be 590 nM; in the experiment with KM12C it was 3400 nM; in the experiment on SW-620, 440 nM.
`CCOc1ccn(-c2ccc(F)cc2)c(=O)c1C(=O)Nc1ccc(Oc2ccnc3cc(-c4ccc(CN5CCC(F)CC5)cn4)sc23)c(F)c1`: the results for the 50% growth inhibitory concentration (GI50) in the experiment on HT-29, in the experiment on KM12C and in the experiment with SW-620 were 2440 nM, 17 nM and 560 nM, respectively. Moreover, in experiment [1], the IC50 is 1.82 nM.
`CCOc1ccn(-c2ccc(Cl)cc2)c(=O)c1C(=O)Nc1ccc(Oc2ccnc3cc(-c4ccc(CN5CCOCC5)cn4)sc23)c(F)c1`: the concentration for 50% growth inhibition (GI50) in the experiment on HT-29 is 600 nM; with KM12C it was 25 nM; in the experiment on SW-620, 580 nM.
As for `CCOc1ccn(-c2ccc(F)cc2)c(=O)c1C(=O)Nc1ccc(Oc2ccnc3cc(-c4ccc(CN5CCC(OC)C5)cn4)sc23)c(F)c1` (configuration not stated), the GI50 in the experiment on HT-29 was 7710 nM; with KM12C it was 23 nM; in the experiment on SW-620, 360 nM. In addition, in experiment [1], the IC50 was determined as 0.69 nM.
Turning to `CCOc1ccn(-c2ccc(C(F)(F)F)cc2)c(=O)c1C(=O)Nc1ccc(Oc2ccnc3cc(-c4ccc(CN5CCOCC5)cn4)sc23)c(F)c1`, in experiment [1], the IC50 was determined as 17.3 nM.
In the case of `CCOc1ccn(-c2ccc(F)cc2)c(=O)c1C(=O)Nc1ccc(Oc2ccnc3cc(-c4ccc(CN5CCC(F)(F)C5)cn4)sc23)c(F)c1`, the GI50 in the experiment on HT-29 came out at 4880 nM; in the experiment on KM12C it was 9 nM; in the experiment on SW-620, 620 nM. The IC50 in experiment [1] was found to be 0.86 nM.
The like results for `CCOc1ccn(-c2ccc(F)cc2)c(=O)c1C(=O)Nc1ccc(Oc2ccnc3cc(-c4ccc(CN5CCC(OC)CC5)cn4)sc23)c(F)c1` were, in that order, 1770 nM, 19 nM, 700 nM and 0.73 nM.
For `CN(C)CCOc1ccn(-c2ccc(F)cc2)c(=O)c1C(=O)Nc1ccc(Oc2ccnc3cc(-c4ccc(CN5CCOCC5)cn4)sc23)c(F)c1`, the GI50 in the experiment with HT-29 was 970 nM; in the experiment with KM12C it was 35 nM; in the experiment on SW-620, 1920 nM. In experiment [1], the IC50 came to 2.15 nM.
Regarding `O=C(Nc1ccc(Oc2ccnc3cc(-c4ccc(CN5CCOCC5)cn4)sc23)c(F)c1)c1c(OCCC2CC2)ccn(-c2ccc(F)cc2)c1=O`, the GI50 is 860 nM in the experiment on HT-29, 11 nM with KM12C and 2370 nM with SW-620. Besides, the IC50 in experiment [1] turned out to be 0.72 nM.
Turning to `CCOc1ccn(-c2ccc(F)cc2)c(=O)c1C(=O)Nc1ccc(Oc2ccnc3cc(-c4ccc(CN5CC(F)(F)C5)cn4)sc23)c(F)c1`, the GI50 with HT-29 came out at 970 nM; in the experiment with KM12C, 24 nM; with SW-620, 780 nM. Further, the IC50 in experiment [1] is 0.48 nM.
As to `CCOc1ccn(-c2ccc(F)cc2)c(=O)c1C(=O)Nc1ccc(Oc2ccnc3cc(-c4ccc(CN5CCC(F)(F)CC5)cn4)sc23)c(F)c1`, the GI50 in the experiment on HT-29 worked out at 660 nM; in the experiment on KM12C it was 27 nM; in the experiment with SW-620, 7370 nM. Further, the IC50 in experiment [1] is 6 nM.
Take `CCOc1ccn(-c2ccc(F)cc2)c(=O)c1C(=O)Nc1ccc(Oc2ccnc3cc(-c4ccc(CN5CCOCC5)cn4)sc23)cc1Cl`: the GI50 with HT-29 was 1560 nM; in the experiment on KM12C, 6 nM; with SW-620, 2840 nM.
`CCOc1ccn(-c2ccc(F)cc2)c(=O)c1C(=O)Nc1ccc(Oc2ccnc3cc(-c4ccc(CN5CCOCC5)cn4)sc23)c(Cl)c1`: the GI50 in the experiment on HT-29 amounted to 660 nM; with KM12C, 15 nM; with SW-620, 1090 nM.
For the molecule `CCOc1ccn(-c2ccc(F)cc2)c(=O)c1C(=O)Nc1ccc(Oc2ccnc3cc(-c4ccc(CN5CCN(C)CC5)cn4)sc23)c(F)c1`, the concentration for 50% growth inhibition (GI50) with KM12C was 9 nM; with SW-620, 680 nM.
